According to ChEMBL document CHEMBL1201862, “PubChem BioAssay data set” (2004):
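Briefly, cells in 96-well plates were exposed to five compound concentrations for 48 h, and endpoints were estimated by linear interpolation. GI50 is the concentration that inhibits growth by half.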 Activity calls are given as the source filed them. No stated cut-off is given here; in the data, active = GI50 up to about 1.1 µM and inactive = higher.

Columns and labels:
Assay in all cases: NCI tumour cell line growth inhibition, 48 h
[1] = test system: SR
[2] = test system: IGROV-1
[3] = test system: SW-620
[4] = test system: NCI-H226
[5] = test system: ACHN
[6] = test system: SK-OV-3
[7] = test system: COLO 205
[8] = test system: U-251
[9] = test system: BT-549
[10] = test system: NCI/ADR-RES
[11] = test system: HCT-116
[12] = test system: CAKI-1
[13] = test system: M14
[14] = test system: Hs-578T
[15] = test system: T47D
[16] = test system: SN12C
[17] = test system: EKVX
[18] = test system: SNB-75
[19] = test system: DU-145

SMILES	GI50 [1]	GI50 [2]	GI50 [3]	GI50 [4]	GI50 [5]	GI50 [6]	GI50 [7]	GI50 [8]	GI50 [9]	GI50 [10]	GI50 [11]	GI50 [12]	GI50 [13]	GI50 [14]	GI50 [15]	GI50 [16]	GI50 [17]	GI50 [18]	GI50 [19]
O=C(NCc1cccc(C(F)(F)F)c1)c1cc2sccc2nc1C(F)(F)F	> 100 µM (inactive)	> 100 µM (inactive)	> 100 µM (inactive)	98.9 µM (inactive)	38.7 µM (inactive)	81.5 µM (inactive)	> 100 µM (inactive)	27.4 µM (inactive)	> 100 µM (inactive)	> 100 µM (inactive)	> 100 µM (inactive)	62.1 µM (inactive)	> 100 µM (inactive)	26.9 µM (inactive)	> 100 µM (inactive)	98.9 µM (inactive)	> 100 µM (inactive)	–	–
Nc1ccc2ccc(N3CCNCC3)nc2n1	33.4 µM (inactive)	19.5 µM (inactive)	47.6 µM (inactive)	21.4 µM (inactive)	74.8 µM (inactive)	83.9 µM (inactive)	49.1 µM (inactive)	80.2 µM (inactive)	65.8 µM (inactive)	> 100 µM (inactive)	43.2 µM (inactive)	> 100 µM (inactive)	55.1 µM (inactive)	47.5 µM (inactive)	–	51.2 µM (inactive)	74.1 µM (inactive)	> 100 µM (inactive)	> 100 µM (inactive)
CC(C)(Cl)C(Br)CC/C(=C/CBr)CBr.CC(C)(Cl)C(Br)CC/C(=C\CBr)CBr (stereo unspecified)	–	2.28 µM (inactive)	2.3 µM (inactive)	24.6 µM (inactive)	3.88 µM (inactive)	15 µM (inactive)	2.32 µM (inactive)	2 µM (inactive)	2.77 µM (inactive)	2.86 µM (inactive)	1.79 µM (inactive)	–	2 µM (inactive)	4.69 µM (inactive)	4.23 µM (inactive)	2.49 µM (inactive)	24.8 µM (inactive)	2.48 µM (inactive)	8.05 µM (inactive)
CC(=O)c1csc2c1C(=O)c1scc(C(C)=O)c1C2=O	–	1.57 µM (inactive)	1.94 µM (inactive)	2.25 µM (inactive)	1.68 µM (inactive)	2.22 µM (inactive)	1.97 µM (inactive)	1.43 µM (inactive)	1.75 µM (inactive)	1.61 µM (inactive)	2.15 µM (inactive)	2.22 µM (inactive)	1.63 µM (inactive)	2.74 µM (inactive)	0.323 µM (active)	1.7 µM (inactive)	1.89 µM (inactive)	2.03 µM (inactive)	1.87 µM (inactive)
CCN(CC)CC(O)CNc1ccc(NCC2CO2)c2c1C(=O)c1ccccc1C2=O (stereo unspecified)	0.055 µM (active)	1.63 µM (inactive)	0.0327 µM (active)	1.32 µM (inactive)	0.144 µM (active)	1.86 µM (inactive)	0.906 µM (active)	1.24 µM (inactive)	0.194 µM (active)	0.0993 µM (active)	0.0466 µM (active)	0.619 µM (active)	0.199 µM (active)	1.14 µM (inactive)	–	0.139 µM (active)	1.74 µM (inactive)	1.6 µM (inactive)	1.63 µM (inactive)
COc1ccc(/C=C2\CSC/C(=C\c3ccc(OC)c(OC)c3OC)C2=O)c(OC)c1OC	26.9 µM (inactive)	37.8 µM (inactive)	20.6 µM (inactive)	> 100 µM (inactive)	16.9 µM (inactive)	> 100 µM (inactive)	37.9 µM (inactive)	39.8 µM (inactive)	35.5 µM (inactive)	23.1 µM (inactive)	17 µM (inactive)	–	18.5 µM (inactive)	–	> 100 µM (inactive)	24.2 µM (inactive)	> 100 µM (inactive)	–	> 100 µM (inactive)
CC12CCC(CC1=O)C2(C)CCC(N)=O (stereo unspecified)	–	> 100 µM (inactive)	> 100 µM (inactive)	> 100 µM (inactive)	> 100 µM (inactive)	> 100 µM (inactive)	> 100 µM (inactive)	> 100 µM (inactive)	> 100 µM (inactive)	> 100 µM (inactive)	> 100 µM (inactive)	> 100 µM (inactive)	> 100 µM (inactive)	> 100 µM (inactive)	> 100 µM (inactive)	> 100 µM (inactive)	> 100 µM (inactive)	–	> 100 µM (inactive)
CCCCCCCCC/C=C1\CCC(CN2CCOCC2)C1=O (stereo unspecified)	2.38 µM (inactive)	4.83 µM (inactive)	2.28 µM (inactive)	5.61 µM (inactive)	4.92 µM (inactive)	17.3 µM (inactive)	3.73 µM (inactive)	2.02 µM (inactive)	2.08 µM (inactive)	–	1.75 µM (inactive)	4.6 µM (inactive)	3.23 µM (inactive)	1.94 µM (inactive)	–	3.78 µM (inactive)	14.8 µM (inactive)	6.17 µM (inactive)	4.65 µM (inactive)
CCOP(=O)(OCC)/C(=C/c1ccccc1)CC(C)=O	–	> 100 µM (inactive)	> 100 µM (inactive)	> 100 µM (inactive)	> 100 µM (inactive)	> 100 µM (inactive)	> 100 µM (inactive)	> 100 µM (inactive)	> 100 µM (inactive)	> 100 µM (inactive)	> 100 µM (inactive)	> 100 µM (inactive)	> 100 µM (inactive)	> 100 µM (inactive)	> 100 µM (inactive)	> 100 µM (inactive)	> 100 µM (inactive)	> 100 µM (inactive)	> 100 µM (inactive)
O=C(CCCCCCCCC(=O)NN1C(=O)/C(=C\c2ccc(O)c(O)c2)SC1c1ccc(Cl)cc1)NN1C(=O)/C(=C\c2ccc(O)c(O)c2)SC1c1ccc(Cl)cc1 (stereo unspecified)	2.08 µM (inactive)	2.83 µM (inactive)	56.5 µM (inactive)	59.3 µM (inactive)	18.3 µM (inactive)	22.6 µM (inactive)	24.8 µM (inactive)	15.7 µM (inactive)	> 47.3 µM (inactive)	28.8 µM (inactive)	24.6 µM (inactive)	9.12 µM (inactive)	20.7 µM (inactive)	–	31.9 µM (inactive)	41.7 µM (inactive)	50.8 µM (inactive)	29.9 µM (inactive)	19.9 µM (inactive)
Cc1cc2[nH]c3c(C#N)c4c(c(=O)n3c2cc1C)CCCC4	–	> 100 µM (inactive)	> 100 µM (inactive)	> 100 µM (inactive)	72.1 µM (inactive)	14.1 µM (inactive)	> 100 µM (inactive)	40.2 µM (inactive)	> 100 µM (inactive)	> 100 µM (inactive)	> 100 µM (inactive)	> 100 µM (inactive)	14.5 µM (inactive)	86.1 µM (inactive)	> 100 µM (inactive)	> 100 µM (inactive)	> 100 µM (inactive)	–	> 100 µM (inactive)
CCO[C@@]1(COCc2ccccc2)OC(=O)C[C@@H]1N1C(=O)OC[C@@H]1c1ccccc1	–	> 100 µM (inactive)	> 100 µM (inactive)	> 100 µM (inactive)	> 100 µM (inactive)	> 100 µM (inactive)	> 100 µM (inactive)	> 100 µM (inactive)	> 100 µM (inactive)	> 100 µM (inactive)	> 100 µM (inactive)	25.8 µM (inactive)	> 100 µM (inactive)	–	> 100 µM (inactive)	> 100 µM (inactive)	> 100 µM (inactive)	> 100 µM (inactive)	> 100 µM (inactive)
COC(=O)c1ccccc1C1CN=NC12Cc1cc(C)cc(C)c1C2=O (stereo unspecified)	–	> 100 µM (inactive)	62.7 µM (inactive)	99.3 µM (inactive)	88.7 µM (inactive)	> 100 µM (inactive)	30.5 µM (inactive)	64.1 µM (inactive)	63.4 µM (inactive)	38.4 µM (inactive)	44.1 µM (inactive)	36.8 µM (inactive)	67.8 µM (inactive)	86.3 µM (inactive)	44.7 µM (inactive)	83.2 µM (inactive)	70 µM (inactive)	23.1 µM (inactive)	> 100 µM (inactive)
c1ccc(C/C(=N\Nc2nc3ccccc3[nH]2)c2ccccn2)cc1	–	< 0.01 µM (active)	< 0.01 µM (active)	< 0.0279 µM (active)	0.0131 µM (active)	0.033 µM (active)	< 0.01 µM (active)	< 0.0221 µM (active)	0.248 µM (active)	< 0.0164 µM (active)	< 0.01 µM (active)	0.056 µM (active)	< 0.0288 µM (active)	0.879 µM (active)	< 0.01 µM (active)	0.0295 µM (active)	–	0.403 µM (active)	0.291 µM (active)
COc1ccccc1CNC1=Nc2ccncc2S(=O)(=O)N1c1ccccc1	92.7 µM (inactive)	> 100 µM (inactive)	> 100 µM (inactive)	> 100 µM (inactive)	> 100 µM (inactive)	> 100 µM (inactive)	63.4 µM (inactive)	52.1 µM (inactive)	> 100 µM (inactive)	57.5 µM (inactive)	70.5 µM (inactive)	63.8 µM (inactive)	> 100 µM (inactive)	74.8 µM (inactive)	–	> 100 µM (inactive)	> 100 µM (inactive)	–	97.5 µM (inactive)
CN1C(=O)C(C(=O)Nc2ccccn2)C2C[C@@]1(C)Oc1ccccc12 (stereo partly specified)	–	> 100 µM (inactive)	> 100 µM (inactive)	> 100 µM (inactive)	0.861 µM (active)	> 100 µM (inactive)	> 100 µM (inactive)	> 100 µM (inactive)	> 100 µM (inactive)	> 100 µM (inactive)	> 100 µM (inactive)	> 100 µM (inactive)	> 100 µM (inactive)	> 100 µM (inactive)	–	–	63.5 µM (inactive)	> 100 µM (inactive)	> 100 µM (inactive)
